Assay results: patent US12344612B2, “Bicyclic ketone compounds and methods of use thereof” (Genentech, Inc., priority 2019, dated 2025)

The compounds below were run against human RIP1 kinase domain (2-375) (Homo sapiens (Human), UniProt Q13546) (assay: RIP1 kinase inhibition biochemical assay (Transcreener ADP, fluorescence polarization)). Conditions: apparent Ki (Morrison tight-binding fit); 50 nM enzyme, 50 μM ATP, 2 hours incubation.
Experimental: RIP1 Kinase Inhibition Assays (Biochemical Assay)
The compounds of the present invention were tested for their capacity to inhibit RIP1K activity as described below.
The ability of the receptor interacting protein kinase (RIPK1) to catalyze the hydrolysis of adenosine-5′-triphosphate (ATP) is monitored using the Transcreener ADP (adenosine-5′-diphosphate) assay (BellBrook Labs). Purified human RIP1 kinase domain (2-375) (50 nM) derived from a baculovirus-infected insect cell expression system is incubated with test compounds for 2 hours in 50 mM Hepes buffer (pH 7.5) containing 30 mM MgCl2, 1 mM dithiothreitol, 50 μM ATP, 0.002% Brij-35, and 0.5% dimethyl sulfoxide (DMSO). Reactions are quenched by the addition of 1× Bell Brooks Stop buffer B (20 mM Hepes (ph7.5), 40 mM ethylenediaminetetraacetic acid and 0.02% Brij-35) containing an additional 12 mM EDTA and 55 ug/mL ADP2 antibody and 4 nM ADP-AlexaFluor® 633 tracer. The tracer bound to the antibody is displaced by the ADP generated during the RIP1K reaction, which causes a decrease in fluorescence polarization that is measured by laser excitation at 633 nm with a FP microplate reader M1000. Fractional activity was plotted against test article concentration. Using Genedata Screener software (Genedata; Basel, Switzerland), the data were fit to the tight-binding apparent inhibition constant (Ki^app) Morrison equation [Williams, J. W. and Morrison, J. F. (1979) The kinetics of reversible tight-binding inhibition. Methods Enzymol 63: 437-67]. The following equation was used to calculate fractional activity and Ki^app:
[formula] where [E]T and [I]T are the total concentrations of active enzyme and test article, respectively.
Exemplary compounds of the present invention are provided in Table 1 along with their physiochemical characterization and in vitro RIP1 kinase inhibitory activity data. “Method” in the first column of each table refers to the synthetic method(s) used to prepare each compound as shown in the Examples above.

Chain of human RIP1 kinase domain (2-375) (Q13546 2-375): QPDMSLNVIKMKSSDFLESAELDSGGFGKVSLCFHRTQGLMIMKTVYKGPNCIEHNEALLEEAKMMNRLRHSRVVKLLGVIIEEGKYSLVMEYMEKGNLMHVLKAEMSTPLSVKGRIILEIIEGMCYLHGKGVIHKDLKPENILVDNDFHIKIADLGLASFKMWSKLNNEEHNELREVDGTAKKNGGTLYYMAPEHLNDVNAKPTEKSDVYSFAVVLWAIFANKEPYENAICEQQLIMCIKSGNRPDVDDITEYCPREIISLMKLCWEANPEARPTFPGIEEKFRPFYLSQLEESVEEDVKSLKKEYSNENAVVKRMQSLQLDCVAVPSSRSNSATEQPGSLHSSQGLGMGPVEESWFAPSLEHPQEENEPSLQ

SMILES | Ki
CC(C)(CO)C(=O)c1nc2n(n1)[C@H](c1ccccc1)C[C@@H]2F [Example 4, 3-hydroxy-2,2-dimethyl-1-((5S,7S)-7-fluoro-5-phenyl-6,7-dihydro-5H-pyrrolo[1,2-b][1,2,4]triazol-2-yl)propan-1-one] | 31 nM
O=C(c1nc2n(n1)[C@@H](c1cncc(F)c1)C[C@H]2F)C1CC1 (single isomer, unassigned) [Example 2] | > 10000 nM
O=C(c1nc2n(n1)[C@H](c1cncc(F)c1)C[C@@H]2F)C1CC1 (single isomer, unassigned) [Example 1] | 9 nM
CC1(C)OCC2CC21C(=O)c1nc2n(n1)[C@H](c1ccccc1)C[C@@H]2F (mixture of isomers) [Example 3, (2,2-dimethyl-3-oxabicyclo[3.1.0]hexan-1-yl)-[rac-(5S,7S)-7-fluoro-5-phenyl-6,7-dihydro-5H-pyrrolo[1,2-b][1,2,4]triazol-2-yl]methanone] | 84 nM

Results, then the compound that gave them:

Ki | SMILES
28 nM | N#Cc1cccc([C@@H]2C[C@H](F)c3nc(C(=O)C4CC4)nn32)c1 (single isomer, unassigned) [Example 8]
25 nM | CCC(=O)c1nc2n(n1)[C@H](c1cnn(C)c1)C[C@@H]2F (single isomer, unassigned) [Example 6]
130 nM | CC(=O)N1CC(C(=O)c2nc3n(n2)[C@H](c2ccccc2)C[C@@H]3F)C1 (single isomer, unassigned) [Example 7]
6.5 nM | O=C(c1nc2n(n1)[C@H](c1cccc(Cl)c1)C[C@@H]2F)C1CC1 (single isomer, unassigned) [Example 9]
< 5 nM | CC(C)(COC(F)F)C(=O)c1nc2n(n1)[C@H](c1ccccc1)C[C@@H]2F [Example 5, 3-(difluoromethoxy)-2,2-dimethyl-1-((5S,7S)-7-fluoro-5-phenyl-6,7-dihydro-5H-pyrrolo[1,2-b][1,2,4]triazol-2-yl)propan-1-one]
